In general, pEC50 refers to the negative decadic logarithm of the EC50, by convention in mol/L.

The results in this text go back to ChEMBL document CHEMBL1154179, “Analogs of a 4-aminothieno[2,3-d]pyrimidine lead (QB13) as modulators of P-glycoprotein substrate specificity” (Bioorg Med Chem Lett, 2009).

Common to all, as to assay type: cell-based
Data set [1] addresses T1, ATP-dependent translocase ABCB1 (Homo sapiens, UniProt P08183). The data set can be described thus: Modulation of P-gp overexpressed in human A2780 cells assessed as daunorubicin accumulation preincubated 15 mins prior to daunorubicin addition measured after 180 mins by fluorescence assay.
The target of data set [2] is T1, ATP-dependent translocase ABCB1. The data set can be described thus: Modulation of P-gp overexpressed in human A2780 cells assessed as daunorubicin accumulation at 31.6 uM by MTT assay. The conditions noted are these: a2780, 31.6 µM.
For data set [3] the target is unchanged. The experiment in a line: Modulation of P-gp overexpressed in human A2780 cells assessed as vinblastin accumulation at 31.6 uM by MTT assay. The conditions noted are these: a2780, 31.6 µM. In general terms: Formazan colour is commonly taken as a measure of viable cells.
Data set [4] has the same target. The data set can be described thus: Modulation of P-gp overexpressed in human A2780 cells assessed as colchicine accumulation at 31.6 uM by MTT assay. The conditions noted are these: a2780, 31.6 µM.

Each structure is given as a SMILES string. pEC50: −log10 of the molar value.

T1 sequence (P08183 whole entry): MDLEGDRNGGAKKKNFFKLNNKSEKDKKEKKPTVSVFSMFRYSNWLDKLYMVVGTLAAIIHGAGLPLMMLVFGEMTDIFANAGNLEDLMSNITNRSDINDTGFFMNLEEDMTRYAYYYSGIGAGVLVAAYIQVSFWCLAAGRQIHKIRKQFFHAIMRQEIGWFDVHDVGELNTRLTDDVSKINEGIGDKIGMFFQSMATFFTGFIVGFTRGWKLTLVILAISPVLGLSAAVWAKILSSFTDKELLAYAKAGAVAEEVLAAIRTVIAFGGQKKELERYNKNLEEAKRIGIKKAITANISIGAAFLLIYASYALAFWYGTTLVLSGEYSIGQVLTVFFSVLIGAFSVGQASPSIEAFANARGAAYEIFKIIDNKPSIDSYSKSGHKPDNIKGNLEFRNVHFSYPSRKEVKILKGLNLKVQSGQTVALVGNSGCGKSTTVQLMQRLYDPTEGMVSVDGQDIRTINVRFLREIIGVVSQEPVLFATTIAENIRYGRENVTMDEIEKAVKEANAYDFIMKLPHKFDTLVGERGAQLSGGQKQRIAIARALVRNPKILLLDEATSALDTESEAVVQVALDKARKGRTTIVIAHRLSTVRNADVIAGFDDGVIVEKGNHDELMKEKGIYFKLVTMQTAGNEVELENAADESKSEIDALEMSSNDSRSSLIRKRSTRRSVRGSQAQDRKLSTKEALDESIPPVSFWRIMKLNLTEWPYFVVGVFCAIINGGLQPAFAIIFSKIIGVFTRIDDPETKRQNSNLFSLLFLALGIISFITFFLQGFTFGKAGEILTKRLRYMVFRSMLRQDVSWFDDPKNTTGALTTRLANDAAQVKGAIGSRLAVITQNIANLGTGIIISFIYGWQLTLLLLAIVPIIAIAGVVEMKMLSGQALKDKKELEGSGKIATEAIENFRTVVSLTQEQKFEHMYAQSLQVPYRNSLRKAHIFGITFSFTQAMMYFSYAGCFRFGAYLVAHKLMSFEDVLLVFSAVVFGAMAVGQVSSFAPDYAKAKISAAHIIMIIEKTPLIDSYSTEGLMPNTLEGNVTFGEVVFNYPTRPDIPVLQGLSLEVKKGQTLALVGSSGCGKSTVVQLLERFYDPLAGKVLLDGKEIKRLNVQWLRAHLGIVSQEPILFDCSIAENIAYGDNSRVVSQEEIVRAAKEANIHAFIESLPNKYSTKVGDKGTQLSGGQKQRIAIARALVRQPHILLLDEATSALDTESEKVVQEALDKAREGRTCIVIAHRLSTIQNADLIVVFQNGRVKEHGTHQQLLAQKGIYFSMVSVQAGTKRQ

`Nc1nc(SCCO)nc2sc3c(c12)CCCC3`: the pEC50 in data set [1] is 5.72.
For `CCOC(=O)CSc1nc(N)c2c3c(sc2n1)CCCC3`, the negative-log EC50 (pEC50) in data set [1] is 5.65. Also, the Activity result is “Active” in data set [2], “Active” in data set [3] and “Not Active” in data set [4].
With `Cc1sc2nc(SCC(=O)c3ccccc3)nc(N)c2c1C`, in data set [1], the pEC50 was 5.88.
`Nc1nc(SCC(=O)c2ccccc2)nc2sc3c(c12)CCCC3`: the negative-log EC50 (pEC50) in data set [1] was 6.19.
On to `CCOC(=O)CSc1nc(N)c2c3c(sc2n1)COCC3`, for which the pEC50 in data set [1] is 5.81.
Same read-out and setting: the value for `Nc1nc(SCCc2ccccc2)nc2ccccc12` was 5.96; that for `CSc1nc(N)c2c(C)c(C)sc2n1` was 5.88; that for `CCSc1nc(N)c2c(C)c(C)sc2n1` was 5.34.
With `CCOC(=O)CSc1nc(N)c2c3c(sc2n1)CN(Cc1ccccc1)CC3`, the pEC50 in data set [1] was 6.19.
Regarding `CCOC(=O)CSc1nc(N)c2c(C)c(C)sc2n1`, in data set [1], the pEC50 was 6.05. The Activity result in data set [2] is “Active”; in data set [3] it was “Active”; in data set [4], “Not Active”.
For the molecule `Cc1sc2nc(SCCc3ccccc3)nc(N)c2c1C`, the pEC50 in data set [1] is 5.65. Moreover, the values for the Activity result in data set [2], in data set [3] and in data set [4] were “Active”, “Active” and “Not Active”, respectively.
On to `CSc1nc(N)c2c3c(sc2n1)CCCC3`, for which the negative-log EC50 (pEC50) in data set [1] was 5.58.
The same measure, in the same setting: the value for `CCSc1nc(N)c2c3c(sc2n1)CCCC3` was 6.34; that for `Nc1nc(SC(C(=O)O)c2ccccc2)nc2sc3c(c12)CCCC3` (centres undefined) was below 4.00.
For the molecule `CCOC(=O)CSc1nc(N)c2c3c(sc2n1)CCC3`, the negative-log EC50 (pEC50) in data set [1] is 5.38.
Turning to `Nc1nc(SCCc2ccccc2)nc2sc3c(c12)CCC3`, in data set [1], the pEC50 was 6.01.
Regarding `COc1cc2nc(SCCc3ccccc3)nc(N)c2cc1OC`, the negative logarithm of the EC50 (pEC50) in data set [1] is 5.82.
`CCOC(=O)CSc1nc(N)c2cc(OC)c(OC)cc2n1`: the pEC50 in data set [1] was 5.92.
`Cc1sc2nc(SC(C(=O)O)c3ccccc3)nc(N)c2c1C` (centres undefined): the pEC50 in data set [1] was below 4.00.
For the molecule `Nc1nc(SCCc2ccccc2)nc2sc3c(c12)CCOC3`, the negative-log EC50 (pEC50) in data set [1] was 6.25.
For the molecule `Nc1nc(SCCc2ccccc2)nc2sc3c(c12)CCCC3`, the pEC50 in data set [1] is 5.99. The figures for the Activity entry in data set [2], in data set [3] and in data set [4] were “Active”, “Active” and “Not Active”, respectively.
Turning to `CCOC(=O)CSc1nc(N)c2ccccc2n1`, the pEC50 in data set [1] is 5.40.
